System: HeLa cells
Assay: Confocal imaging and colocalization in live HeLa cells
Assay type: cell-based
Details: for fluorescence at 405/475 nm: LNPs
Description: FIGS. 9A-9E: confocal imaging of lipid environments targeted by ONOO^− in live HeLa cells. Cells were seeded into glass microscope dishes, incubated with LNPs (50 μM) and stained with organelle trackers and/or actin dye prior to imaging. LNPs obtained from a 47.5:47.5:5.0 molar ratio of DOTMA, DOPE, and DPPC-TC-ONOO^−. FIG. 9A: cells treated with LNPs, stimulated with IFN-γ/LPS/PMA. Time coarse images acquired upon PMA treatment. FIG. 9B: cells treated with LNPs and 1400 W. FIG. 9C: cells treated with LNPs, then with 1400 W and IFN-γ/LPS/PMA. FIGS. 9D-9E: quantitative colocalization study of cells treated with LNPs and stimulated with IFN-γ/LPS/PMA. Pearson's correlation coefficient (PCC) was calculated for quantitative assessment. Organelle trackers: ER-Tracker™, MitoTracker™, CellLight™ Golgi-RFP, LysoTracker™. Cell cytoskeleton was assessed with CellMask™ Deep Red Actin Tracking Stain. DPPC-TC channel: 405/475 nm. Scale bars=20 μm (FIGS. 9A-9D) or 5 μm (FIG. 9E). With the utility of DPPC-TC-ONOO^− proven in synthetic protocell membranes, incorporation into live HeLa and RAW 264.7 cells was sought, which are relevant to redox-induced stress and have well-recognized pathways for RNS and ROS production. Lipid nanoparticles (LNPs) (˜100 nm in diameter) was used to deliver DPPC-TC-ONOO− into cells. This method circumvented the limited solubility of DPPC-TC-ONOO− due to the relatively hydrophobic butanone-coumarin motif. LNPs were obtained via sonication from 1,2-di-O-octadecenyl-3-trimethylammonium propane (DOTMA), 1,2-dioleoyl-sn-glycero-3-phosphoethanolamine (DOPE), and DPPC-TC-ONOO− (47.5:47.5:5.0 molar ratio), which were hydrated with a 300 mM sucrose solution. DOTMA and DOPE were chosen as the carrier lipids due to their cationic/zwitterionic natures, which has been postulated to enhance uptake through the cell membrane. The impact of different LNP compositions and incubation times on the cellular incorporation of DPPC-TC-ONOO^− was assessed. […] Specifically, LNPs containing greater than 10 mol % DPPC-TC-ONOO− were considerably more heterogenous in size (up to […] observed, in contrast to ˜100 nm) and nonuniform in vesicle lamellarity. Those with less than 4 mol % DPPC-TC-ONOO− led to insufficient fluorescence signal. To balance these counteracting factors, 5 mol % DPPC-TC-ONOO− was used, with 47.5 mol % DOTMA and DOPE, each. In these initial assays, cells were incubated with LNPs for up to 15 hours to complete the uptake and intracellular localization of DPPC-TC-ONOO−. Shorter incubation times (3-to-5 hours) led to its uptake but not subcellular localization. […] However, high serum concentration in DMEM caused interference between LNPs and serum-protein, resulting in aggregate formation as observed by microscopy. To overcome this obstacle, LNPs (50 μM) were used in a mixture of 2/3 volumetric ratio of sucrose solution and Opti-MEM™, a reduced serum medium known to increase the efficiency of lipofection. […] For a physiologically relevant stress model, the standard stimulation condition involving IFN-γ/LPS/PMA was employed. Treatment of cells with IFN-γ/LPS leads to the endogenous production of nitric oxide and PMA provokes increased levels of superoxide. These two reactive species combine to form peroxynitrite, as described elsewhere herein. […] The intracellular redox selectivity of DPPC-TC-ONOO^− was also assessed using N-(3-(aminomethyl)benzyl)-acetamidine, known as 1400 W, which inhibits the production of NO· by irreversibly binding to iNOS. […] To determine whether DPPC-TC-ONOO^− localizes and functions at a specific subcellular compartment in HeLa, a comprehensive colocalization study was performed with dyes specific for lipid-rich and membrane-enclosed organelles, including the ER, mitochondrion, Golgi apparatus, and lysosome (FIGS. 9D-9E). In addition, actin stain was used to gain a visual insight into the cytoskeletal structure of the whole cell. […]

CCCCCCCCCCCCCCCC(=O)OCC(COP(=O)([O-])OCC[N+](C)(C)Cc1cn(-c2cc3ccc(OC(=O)Oc4ccc(CCC(=O)C(F)(F)F)cc4)cc3oc2=O)nn1)OC(=O)CCCCCCCCCCCCCCC (racemic) [DPPC-TC-ONOO^−]
signal in the DPPC-TC channel (1400 W only or 1400 W and IFN-γ/LPS/PMA): no observable signal
Pearson's correlation coefficient (PCC) (DPPC-TC signal vs ER-Tracker Green): 0.938
fluorescence at 405/475 nm (no stimulation): no observable signal
fluorescence at 405/475 nm (stimulation with IFN-γ/LPS/PMA): substantial increase in fluorescence
colocalization correlation (dyes specific for Golgi, mitochondria, and lysosomes): less significant correlation
time point at which intracellular fluorescence was observable upon PMA addition (post IFN-γ/LPS stimulation, earliest possible image acquisition time): 3 min

Reference: patent publication US20240385182A1, “MASKED FLUOROGENIC LIPID COMPOUNDS, LIPID PARTICLES COMPRISING THE SAME, AND METHODS OF USE THEREOF” (Rutgers, The State University of New Jersey, priority 2023, published 2024)
